Test results: patent US9302999B2, “Substituted triazoles as herbicides” (E. I. DU PONT DE NEMOURS AND COMPANY, priority 2012, dated 2016)

Experiments:
Format in all cases: in vivo
[1] = system: Oilseed Rape; assay: Test C preemergence: oilseed rape; conditions: 31 g ai/ha, scale 0 (no effect) to 100 (complete control)
[2] = system: beggarticks (hairy beggarticks, Bidens pilosa); assay: Test F pre-/postemergence: beggarticks
How it was run: (§1)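 0–100 visual control scores, taken 14–21 d after application in the greenhouse. Preemergence treatment was made to silt loam soil at sowing. Postemergence sprays hit 1- to 4-leaf plants (2–18 cm) in peat/vermiculite mix. Surfactant-containing non-phytotoxic solvent served as the vehicle.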

[3] = system: ryegrass, Italian (Italian ryegrass, Lolium multiflorum); assay: Test D pre-/postemergence: ryegrass, Italian
How it was run: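 Applied as a non-phytotoxic solvent formulation with surfactant, compounds were tested preemergence in silt loam and postemergence on seedlings 2 to 18 cm high in peat-vermiculite medium. Evaluation was visual, 0 meaning no effect and 100 complete control, at 14 to 21 days.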

[4] = system: barley, spring (spring barley, Hordeum vulgare); assay: Test D pre-/postemergence: barley, spring
Description: Seeds of plant species selected from bluegrass (annual bluegrass, Poa annua), blackgrass (Alopecurus myosuroides), canarygrass (Phalaris minor), chickweed (common chickweed, Stellaria media), galium (catchweed bedstraw, Galium aparine), bromegrass, downy (downy bromegrass, Bromus tectorum), field poppy (Papaver rhoeas), field violet (Viola arvensis), foxtail, green (green foxtail, Setaria viridis), deadnettle (henbit deadnettle, Lamium amplexicaule), ryegrass, Italian (Italian ryegrass, Lolium multiflorum), kochia (Kochia scoparia), lambsquarters (Chenopodium album), oilseed rape (Brassica napus), pigweed (Amaranthus retroflexus), Russian thistle (Salsola iberica), chamomile (scentless chamomile, Matricaria inodora), speedwell (bird's-eye speedwell, Veronica persica), barley, spring (spring barley, Hordeum vulgare), wheat, spring (spring wheat, Triticum aestivum), buckwheat, wild (wild buckwheat, Polygonum convolvulus), mustard, wild (wild mustard, Sinapis arvensis), oat, wild (wild oat, Avena fatua), radish, wild (wild radish, Raphanus raphanistrum), windgrass (Apera spica-venti), barley, winter (winter barley, Hordeum vulgare), and wheat, winter (winter wheat, Triticum aestivum) were planted into a silt loam soil and treated preemergence with test chemicals formulated in a non-phytotoxic solvent mixture which included a surfactant. At the same time, these same crop and weed species were planted in pots containing the planting medium comprising spaghnum peat moss, vermiculite, wetting agent and starter nutrients and treated with postemergence applications of the test chemicals formulated in the same manner. Plants ranged in height from 2 to 18 cm (1- to 4-leaf stage).
(§2) Treated plants and controls were maintained in a controlled growth environment for 14 to 21 days after which time all species were compared to controls and visually evaluated. Plant response ratings, summarized in Table D, are based on a scale of 0 to 100 where 0 is no effect and 100 is complete control. A dash (-) response means no test result.

[5] = system: sandbur (southern sandbur, Cenchrus echinatus); assay: Test F pre-/postemergence: sandbur
How it was run: as §1

[6] = system: nightshade (eastern black nightshade, Solanum ptycanthum); assay: Test F pre-/postemergence: nightshade; conditions: Preemergence
Description: Seeds of plant species selected from corn (Zea mays), soybean (Glycine max), velvetleaf (Abutilon theophrasti), lambsquarters (Chenopodium album), poinsettia, wild (wild poinsettia, Euphorbia heterophylla), pigweed, palmer (palmer pigweed, Amaranthus palmeri), waterhemp (common waterhemp, Amaranthus rudis), surinam grass (Brachiaria decumbens), crabgrass, Brazil (Brazilian crabgrass, Digitaria horizontalis), panicum, fall (fall panicum Panicum dichotomiflorum), crabgrass, large (large crabgrass, Digitaria sanguinalis), foxtail, giant (giant foxtail, Setaria faberii), foxtail, green (green foxtail Setaria viridis), goosegrass (Eleusine indica), ragweed (common ragweed, Ambrosia elatior), barnyardgrass (Echinochloa crus-galli), sandbur (southern sandbur, Cenchrus echinatus), arrowleaf sida (Sida rhombifolia), ryegrass, Italian (Italian ryegrass, Lolium multiflorum), dayflower, VA (Virginia (VA) dayflower, Commelina virginica), field bindweed (Convolvulus arvensis), cocklebur (common cocklebur, Xanthium strumarium), morningglory (Ipomoea coccinea), nightshade (eastern black nightshade, Solanum ptycanthum), kochia (Kochia scoparia), nutsedge, yellow (yellow nutsedge, Cyperus esculentus), johnsongrass (Sorghum halepense), smartweed (ladysthumb smartweed, Polygonum persicaria), and beggarticks (hairy beggarticks, Bidens pilosa), were planted into a silt loam soil and treated preemergence with test chemicals formulated in a non-phytotoxic solvent mixture which included a surfactant. At the same time, plants selected from these crop and weed species and also pigweed (Amaranthus retroflexus), waterhemp_RES1 (ALS/Triazine resistant common waterhemp, Amaranthus rudis) and waterhemp_RES2 (ALS/HPPD resistant common waterhemp, Amaranthus rudis) were planted in pots containing a planting medium comprising spaghnum peat moss, vermiculite, wetting agent and starter nutrients treated with postemergence applications of some of the test chemicals formulated in the same manner. Plants ranged in height from 2 to 18 cm for postemergence treatments (1- to 4-leaf stage).
as §2, with “greenhouse” for “controlled growth environment”, “days,” for “days”, “E,” for “D,”

[7] = Postemergence, 8 g ai/ha, scale 0 to 100
[8] = Postemergence, 16 g ai/ha, scale 0 to 100
[9] = Postemergence, 31 g ai/ha, scale 0 to 100
[10] = Postemergence, 62 g ai/ha, scale 0 to 100
[11] = Postemergence, 125 g ai/ha, scale 0 to 100
[12] = Preemergence, 8 g ai/ha, scale 0 to 100, 0 no effect, 100 complete control
[13] = Preemergence, 16 g ai/ha, scale 0 to 100, 0 no effect, 100 complete control
[14] = Preemergence, 31 g ai/ha, scale 0 to 100, 0 no effect, 100 complete control
[15] = Preemergence, 62 g ai/ha, scale 0 to 100
[16] = Preemergence, 125 g ai/ha, scale 0 to 100
[17] = Postemergence, 31 g ai/ha, scale 0 to 100 (0 no effect, 100 complete control)
[18] = Postemergence, 62 g ai/ha, scale 0 to 100 (0 no effect, 100 complete control)
[19] = Postemergence, 125 g ai/ha, scale 0 to 100, 0 no effect, 100 complete control
[20] = 16 g ai/ha, scale 0 to 100, 0 no effect, 100 complete control
[21] = 31 g ai/ha, scale 0 to 100, 0 no effect, 100 complete control
[22] = Preemergence, 250 g ai/ha, scale 0 to 100
[23] = Postemergence, 250 g ai/ha, scale 0 to 100

## CCCc1nn(-c2ccc(C(F)(F)F)cc2)nc1Oc1ccnc(C(F)(F)F)c1 [Compound 170]
[1]
  Plant response rating, Oilseed Rape: 95

## CCOc1nn(-c2ccc(F)cc2)nc1Cc1ccnc(C(F)(F)F)c1 [Compound 196, 4-[[5-ethoxy-2-(4-fluorophenyl)-2H-1,2,3-triazol-4-yl]methyl]-2-(trifluoromethyl)pyridine]
[2]; [7]
  Plant response rating, Beggarticks: 50
[2]; [8]
  Plant response rating, Beggarticks: 60
[2]; [9]
  Plant response rating, Beggarticks: 60
[2]; [10]
  Plant response rating, Beggarticks: 60
[2]; [11]
  Plant response rating, Beggarticks: 70
[2]; [12]
  Plant response rating, Beggarticks: 0
[2]; [13]
  Plant response rating, Beggarticks: 50
[2]; [14]
  Plant response rating, Beggarticks: 50
[2]; [15]
  Plant response rating, Beggarticks: 50
[2]; [16]
  Plant response rating, Beggarticks: 65
[3]; [17]
  Plant response rating: Ryegrass, Italian: 15
[3]; [18]
  Plant response rating: Ryegrass, Italian: 30
[3]; [19]
  Plant response rating: Ryegrass, Italian: 75
[3]; [8]
  Plant response rating, Ryegrass, Italian: 5
[3]; [13]
  Plant response rating, Ryegrass, Italian: 5
[3]; [14]
  Plant response rating, Ryegrass, Italian: 10
[3]; [15]
  Plant response rating, Ryegrass, Italian: 60
[3]; [16]
  Plant response rating, Ryegrass, Italian: 100
[4]; [17]
  Plant response rating: Barley, Spring: 20
[4]; [18]
  Plant response rating: Barley, Spring: 35
[4]; [19]
  Plant response rating: Barley, Spring: 55
[4]; [8]
  Plant response rating, Barley, Spring: 15
[4]; [13]
  Plant response rating, Barley, Spring: 5
[4]; [14]
  Plant response rating, Barley, Spring: 5
[4]; [15]
  Plant response rating, Barley, Spring: 15
[4]; [16]
  Plant response rating, Barley, Spring: 30
[5]; [7]
  Plant response rating, Sandbur: 10
[5]; [8]
  Plant response rating, Sandbur: 20
[5]; [9]
  Plant response rating, Sandbur: 20
[5]; [10]
  Plant response rating, Sandbur: 30
[5]; [11]
  Plant response rating, Sandbur: 50
[5]; [12]
  Plant response rating, Sandbur: 5
[5]; [13]
  Plant response rating, Sandbur: 5
[5]; [14]
  Plant response rating, Sandbur: 5
[5]; [16]
  Plant response rating, Sandbur: 98
[6]; 8 g ai/ha, scale 0 to 100, 0 no effect, 100 complete control
  Plant response rating, Nightshade: 95
[6]; [20]
  Plant response rating, Nightshade: 95
[6]; [21]
  Plant response rating, Nightshade: 95
[6]; 125 g ai/ha, scale 0 to 100
  Plant response rating, Nightshade: 100

## CCc1nn(-c2ccc(C(F)(F)F)c(F)c2)nc1Oc1ccnc(C(F)(F)F)c1 [Compound 183]
[1]
  Plant response rating, Oilseed Rape: 60

## CCc1nn(-c2ccc(F)c(F)c2)nc1Oc1ccnc(C(F)(F)F)c1 [Compound 171]
[1]
  Plant response rating, Oilseed Rape: 0
[2]; [13]
  Plant response rating, Beggarticks: 0
[2]; [14]
  Plant response rating, Beggarticks: 0
[2]; [15]
  Plant response rating, Beggarticks: 0
[2]; [16]
  Plant response rating, Beggarticks: 0
[2]; [22]
  Plant response rating, Beggarticks: 0
[5]; [13]
  Plant response rating, Sandbur: 0
[5]; [14]
  Plant response rating, Sandbur: 5
[5]; [16]
  Plant response rating, Sandbur: 50
[5]; [22]
  Plant response rating, Sandbur: 50
[6]; [20]
  Plant response rating, Nightshade: 0
[6]; [21]
  Plant response rating, Nightshade: 0
[6]; 125 g ai/ha, scale 0 to 100
  Plant response rating, Nightshade: 5
[6]; 250 g ai/ha, scale 0 to 100
  Plant response rating, Nightshade: 5

## CCOc1nn(-c2ccc(C(F)(F)F)cc2)nc1Cc1ccnc(C(F)(F)F)c1 [Compound 164, 4-[[5-ethoxy-2-[4-(trifluoromethyl)phenyl]-2H-1,2,3-triazol-4-yl]methyl]-2-(trifluoromethyl)pyridine]
[1]
  Plant response rating, Oilseed Rape: 5

## CCc1nn(-c2ccc(C(F)(F)F)cc2)nc1Oc1ccnc(C(F)(F)F)c1 [Compound 169]
[1]
  Plant response rating, Oilseed Rape: 50
[2]; [23]
  Plant response rating, Beggarticks: 40
[2]; [8]
  Plant response rating, Beggarticks: 25
[2]; [9]
  Plant response rating, Beggarticks: 25
[2]; [10]
  Plant response rating, Beggarticks: 25
[2]; [11]
  Plant response rating, Beggarticks: 30
[2]; [13]
  Plant response rating, Beggarticks: 0
[2]; [14]
  Plant response rating, Beggarticks: 0
[2]; [15]
  Plant response rating, Beggarticks: 0
[2]; [16]
  Plant response rating, Beggarticks: 5
[2]; [22]
  Plant response rating, Beggarticks: 5
[5]; [23]
  Plant response rating, Sandbur: 25
[5]; [8]
  Plant response rating, Sandbur: 15
[5]; [9]
  Plant response rating, Sandbur: 15
[5]; [10]
  Plant response rating, Sandbur: 20
[5]; [11]
  Plant response rating, Sandbur: 20
[5]; [13]
  Plant response rating, Sandbur: 0
[5]; [14]
  Plant response rating, Sandbur: 20
[5]; [16]
  Plant response rating, Sandbur: 65
[5]; [22]
  Plant response rating, Sandbur: 75
[6]; [20]
  Plant response rating, Nightshade: 0
[6]; [21]
  Plant response rating, Nightshade: 80
[6]; 125 g ai/ha, scale 0 to 100
  Plant response rating, Nightshade: 100
[6]; 250 g ai/ha, scale 0 to 100
  Plant response rating, Nightshade: 100

## CCCc1nn(-c2ccc(F)cc2F)nc1Oc1ccnc(C(F)(F)F)c1 [Compound 179]
[1]
  Plant response rating, Oilseed Rape: 80

## CCCc1nn(-c2ccc(F)c(F)c2)nc1Oc1ccnc(C(F)(F)F)c1 [Compound 172]
[1]
  Plant response rating, Oilseed Rape: 60
[2]; [23]
  Plant response rating, Beggarticks: 60
[2]; [9]
  Plant response rating, Beggarticks: 40
[2]; [11]
  Plant response rating, Beggarticks: 50
[2]; [14]
  Plant response rating, Beggarticks: 15
[2]; [16]
  Plant response rating, Beggarticks: 25
[2]; [22]
  Plant response rating, Beggarticks: 25
[5]; [23]
  Plant response rating, Sandbur: 40
[5]; [9]
  Plant response rating, Sandbur: 20
[5]; [11]
  Plant response rating, Sandbur: 30
[5]; [14]
  Plant response rating, Sandbur: 5
[5]; [16]
  Plant response rating, Sandbur: 70
[5]; [22]
  Plant response rating, Sandbur: 100
[6]; [21]
  Plant response rating, Nightshade: 5
[6]; 125 g ai/ha, scale 0 to 100
  Plant response rating, Nightshade: 100
[6]; 250 g ai/ha, scale 0 to 100
  Plant response rating, Nightshade: 100

## Cc1nn(-c2ccc(C(F)(F)F)c(F)c2)nc1Oc1ccnc(C(F)(F)F)c1 [Compound 148]
[2]; [13]
  Plant response rating, Beggarticks: 0
[2]; [14]
  Plant response rating, Beggarticks: 0
[2]; [15]
  Plant response rating, Beggarticks: 0
[2]; [16]
  Plant response rating, Beggarticks: 0
[2]; [22]
  Plant response rating, Beggarticks: 0
[3]; [17]
  Plant response rating: Ryegrass, Italian: 15
[3]; [18]
  Plant response rating: Ryegrass, Italian: 20
[3]; [19]
  Plant response rating: Ryegrass, Italian: 20
[3]; [8]
  Plant response rating, Ryegrass, Italian: 5
[3]; [13]
  Plant response rating, Ryegrass, Italian: 0
[3]; [14]
  Plant response rating, Ryegrass, Italian: 5
[3]; [15]
  Plant response rating, Ryegrass, Italian: 5
[3]; [16]
  Plant response rating, Ryegrass, Italian: 35
[4]; [17]
  Plant response rating: Barley, Spring: 15
[4]; [18]
  Plant response rating: Barley, Spring: 20
[4]; [19]
  Plant response rating: Barley, Spring: 25
[4]; [8]
  Plant response rating, Barley, Spring: 10
[4]; [13]
  Plant response rating, Barley, Spring: 0
[4]; [14]
  Plant response rating, Barley, Spring: 0
[4]; [15]
  Plant response rating, Barley, Spring: 5
[4]; [16]
  Plant response rating, Barley, Spring: 5
[5]; [13]
  Plant response rating, Sandbur: 0
[5]; [14]
  Plant response rating, Sandbur: 0
[5]; [16]
  Plant response rating, Sandbur: 70
[5]; [22]
  Plant response rating, Sandbur: 100
[6]; [20]
  Plant response rating, Nightshade: 0
[6]; [21]
  Plant response rating, Nightshade: 0
[6]; 125 g ai/ha, scale 0 to 100
  Plant response rating, Nightshade: 98
[6]; 250 g ai/ha, scale 0 to 100
  Plant response rating, Nightshade: 98

## CCCc1nn(-c2ccc(F)cc2)nc1Oc1ccnc(C(F)(F)F)c1 [Compound 168]
[1]
  Plant response rating, Oilseed Rape: 100
